Experiments:
TK-10 = assay: NCI one-dose screening, renal cancer TK-10; type: cell-based, human; settings: 10 μM
human tumor cell lines = assay: NCI one-dose screening, Mean / Delta / Range of growth percent over all tested cell lines; type: cell-based; settings: 10 μM
EKVX = assay: NCI one-dose screening, non-small cell lung cancer EKVX; type: cell-based, human; settings: 10 μM
HL-60, TB = assay: NCI one-dose screening, leukemia HL-60, TB; type: cell-based, human; settings: 10 μM
SNB-19 = assay: NCI one-dose screening, CNS cancer SNB-19; type: cell-based, human; settings: 10 μM
RXF, 393 = assay: NCI one-dose screening, renal cancer RXF, 393; type: cell-based, human; settings: 10 μM
DU145 = assay: NCI one-dose screening, prostate cancer DU145; type: cell-based, human; settings: 10 μM
M14 = assay: NCI one-dose screening, melanoma M14; type: cell-based, human; settings: 10 μM
OVCAR-8 = assay: NCI one-dose screening, ovarian cancer OVCAR-8; type: cell-based, human; settings: 10 μM
SR = assay: NCI one-dose screening, leukemia SR; type: cell-based, human; settings: 10 μM
SK-OV-3 = assay: NCI one-dose screening, ovarian cancer SK-OV-3; type: cell-based, human; settings: 10 μM
NCI-H23 = assay: NCI one-dose screening, non-small cell lung cancer NCI-H23; type: cell-based, human; settings: 10 μM
COLO 205 = assay: NCI one-dose screening, colon cancer COLO 205; type: cell-based, human; settings: 10 μM
T-47D = assay: NCI one-dose screening, breast cancer T-47D; type: cell-based, human; settings: 10 μM
SK-MEL-5 = assay: NCI one-dose screening, melanoma SK-MEL-5; type: cell-based, human; settings: 10 μM
PC-3 = assay: NCI one-dose screening, prostate cancer PC-3; type: cell-based, human; settings: 10 μM
PRMI-8226 cell line = assay: NCI one-dose screening, leukemia PRMI-8226; type: cell-based, human; settings: 10 μM
MDA-MB-468 = assay: NCI one-dose screening, breast cancer MDA-MB-468; type: cell-based, human; settings: 10 μM
HCT-116 = assay: NCI one-dose screening, colon cancer HCT-116; type: cell-based, human; settings: 10 μM
SK-MEL-2 = assay: NCI one-dose screening, melanoma SK-MEL-2; type: cell-based, human; settings: 10 μM
HT29 = assay: NCI one-dose screening, colon cancer HT29; type: cell-based, human; settings: 10 μM
SK-MEL-28 = assay: NCI one-dose screening, melanoma SK-MEL-28; type: cell-based, human; settings: 10 μM
MCF7 = assay: NCI one-dose screening, breast cancer MCF7; type: cell-based, human; settings: 10 μM
ACHN = assay: NCI one-dose screening, renal cancer ACHN; type: cell-based, human; settings: 10 μM
UACC-62 = assay: NCI one-dose screening, melanoma UACC-62; type: cell-based, human; settings: 10 μM
IGROV1 = assay: NCI one-dose screening, ovarian cancer IGROV1; type: cell-based, human; settings: 10 μM
KM12 = assay: NCI one-dose screening, colon cancer KM12; type: cell-based, human; settings: 10 μM
NCI-H226 = assay: NCI one-dose screening, non-small cell lung cancer NCI-H226; type: cell-based, human; settings: 10 μM
HCT-15 = assay: NCI one-dose screening, colon cancer HCT-15; type: cell-based, human; settings: 10 μM
MDA-MB-231/ATCC = assay: NCI one-dose screening, breast cancer MDA-MB-231/ATCC; type: cell-based, human; settings: 10 μM
SNB-75 = assay: NCI one-dose screening, CNS cancer SNB-75; type: cell-based, human; settings: 10 μM
[1] = NCI one-dose screening, renal cancer A489; type: cell-based, human; settings: 10 μM
NCI-H522 = assay: NCI one-dose screening, non-small cell lung cancer NCI-H522; type: cell-based, human; settings: 10 μM
BT-549 = assay: NCI one-dose screening, breast cancer BT-549; type: cell-based, human; settings: 10 μM
LOX IMVI = assay: NCI one-dose screening, melanoma LOX IMVI; type: cell-based, human; settings: 10 μM
HCC-2998 = assay: NCI one-dose screening, colon cancer HCC-2998; type: cell-based, human; settings: 10 μM
SN12C = assay: NCI one-dose screening, renal cancer SN12C; type: cell-based, human; settings: 10 μM
SF-539 = assay: NCI one-dose screening, CNS cancer SF-539; type: cell-based, human; settings: 10 μM
OVCAR-5 = assay: NCI one-dose screening, ovarian cancer OVCAR-5; type: cell-based, human; settings: 10 μM
NCl/ADR-RES = assay: NCI one-dose screening, breast cancer NCl/ADR-RES; type: cell-based, human; settings: 10 μM; listed under Ovarian cancer
OVCAR-3 = assay: NCI one-dose screening, ovarian cancer OVCAR-3; type: cell-based, human; settings: 10 μM
CAKI-1 = assay: NCI one-dose screening, renal cancer CAKI-1; type: cell-based, human; settings: 10 μM
U251 = assay: NCI one-dose screening, CNS cancer U251; type: cell-based, human; settings: 10 μM
K562cell line = assay: NCI one-dose screening, leukemia K562; type: cell-based, human; settings: 10 μM
SF-268 = assay: NCI one-dose screening, CNS cancer SF-268; type: cell-based, human; settings: 10 μM
786-O = assay: NCI one-dose screening, renal cancer 786-O; type: cell-based, human; settings: 10 μM
MDA, -MB-435 = assay: NCI one-dose screening, breast cancer MDA, -MB-435; type: cell-based, human; settings: 10 μM; listed under Melanoma
HOP-62 = assay: NCI one-dose screening, non-small cell lung cancer HOP-62; type: cell-based, human; settings: 10 μM
NCI-H460 = assay: NCI one-dose screening, non-small cell lung cancer NCI-H460; type: cell-based, human; settings: 10 μM
MOLT-4 = assay: NCI one-dose screening, leukemia MOLT-4; type: cell-based, human; settings: 10 μM
UO-31 = assay: NCI one-dose screening, renal cancer UO-31; type: cell-based, human; settings: 10 μM
SF-295 = assay: NCI one-dose screening, CNS cancer SF-295; type: cell-based, human; settings: 10 μM
[2] = tested on: PC-3 prostate cancer cell line; assay: SRB assay cell viability, PC-3 prostate cancer cell line; type: cell-based, human; settings: PC-3 prostate cancer cell line, Table II prints no unit, μM printed, read-out: SRB assay: 50% inhibition of cancer cell proliferation of sample concentration (IC50) of PC-3 prostate cancer cell line
UACC-257 = assay: NCI one-dose screening, melanoma UACC-257; type: cell-based, human; settings: 10 μM
HOP-92 = assay: NCI one-dose screening, non-small cell lung cancer HOP-92; type: cell-based, human; settings: 10 μM
HS 578-T = assay: NCI one-dose screening, breast cancer HS 578-T; type: cell-based, human; settings: 10 μM; Breast cancer
MALME-3M = assay: NCI one-dose screening, melanoma MALME-3M; type: cell-based, human; settings: 10 μM
A549/ATCC = assay: NCI one-dose screening, non-small cell lung cancer A549/ATCC; type: cell-based, human; settings: 10 μM

## 4-(o-phenylmethyl thio)anthra[2,1-c] [1,2,5]thiadiazol-6,11-dione [C48]
TK-10
  Growth Percent TK-10: 122.97%
Human tumor cell lines; delta over all cell lines
  Growth Percent Delta: 75.31%
Human tumor cell lines; mean over all cell lines
  Growth Percent Mean: 80.61%
Human tumor cell lines; range over all cell lines
  Growth Percent Range: 120.98%
EKVX
  Growth Percent EKVX: 104.56%
HL-60, TB
  Growth Percent HL-60(TB): −79.53%
SNB-19
  Growth Percent SNB-19: 103.54%
RXF, 393
  Growth Percent RXF 393: 95.88%
DU145
  Growth Percent DU145: 101.53%
M14
  Growth Percent M14: 94.25%
OVCAR-8
  Growth Percent OVCAR-8: 76.29%
SR
  Growth Percent SR: 23.00%
SK-OV-3
  Growth Percent SK-OV-3: 93.79%
NCI-H23
  Growth Percent NCI-H23: 53.21%
COLO 205
  Growth Percent COLO 205: 99.23%
T-47D
  Growth Percent T-47D: 51.89%
SK-MEL-5
  Growth Percent SK-MEL-5: 87.54%
PC-3
  Growth Percent PC-3: 73.26%
PRMI-8226 cell line
  Growth Percent RPMI-8226: 48.56%
MDA-MB-468
  Growth Percent MDA-MB-468: 53.68%
HCT-116
  Growth Percent HCT-116: 92.15%
SK-MEL-2
  Growth Percent SK-MEL-2: 73.29%
HT29
  Growth Percent HT29: 104.31%
SK-MEL-28
  Growth Percent SK-MEL-28: 105.73%
MCF7
  Growth Percent MCF7: 66.12%
ACHN
  Growth Percent ACHN: 89.76%
UACC-62
  Growth Percent UACC-62: 90.69%
IGROV1
  Growth Percent IGROV1: 80.06%
KM12
  Growth Percent KM12: 103.11%
NCI-H226
  Growth Percent NCI-H226: 95.71%
HCT-15
  Growth Percent HCT-15: 38.57%
MDA-MB-231/ATCC
  Growth Percent MDA-MB-231/ATCC: 60.72%
SNB-75
  Growth Percent SNB-75: 76.30%
[1]
  Growth Percent A498: 85.54%
NCI-H522
  Growth Percent NCI-H522: 74.81%
BT-549
  Growth Percent BT-549: 95.35%
LOX IMVI
  Growth Percent LOX IMVI: 30.01%
HCC-2998
  Growth Percent HCC-2998: 124.00%
SN12C
  Growth Percent SN12C: 85.97%
SF-539
  Growth Percent SF-539: 78.04%
OVCAR-5
  Growth Percent OVCAR-5: 126.28%
NCl/ADR-RES
  Growth Percent NCI/ADR-RES: 59.53%
OVCAR-3
  Growth Percent OVCAR-3: 5.30%
CAKI-1
  Growth Percent CAKI-1: 81.47%
U251
  Growth Percent U251: 62.36%
K562cell line
  Growth Percent K562: 32.30%
SF-268
  Growth Percent SF-268: 74.73%
786-O
  Growth Percent 786-0: 100.36%
MDA, -MB-435
  Growth Percent MDA-MB-435: 80.61%
HOP-62
  Growth Percent HOP-62: 59.51%
NCI-H460
  Growth Percent NCI-H460: 88.86%
MOLT-4
  Growth Percent MOLT-4: 67.31%
UO-31
  Growth Percent UO-31: 62.14%
SF-295
  Growth Percent SF-295: 104.92%
[2]
  IC50: > 15 µM
UACC-257
  Growth Percent UACC-257: 87.32%
HOP-92
  Growth Percent HOP-92: 89.91%
HS 578-T
  Growth Percent HS 578T: 83.69%
MALME-3M
  Growth Percent MALME-3M: 96.77%
A549/ATCC
  Growth Percent A549/ATCC: 104.68%

Source: patent US8877748B2, “Heterocyclic fused anthraquinone derivatives, manufacturing method and pharmaceutical composition using thereof” (National Defense Medical Center, priority 2012, dated 2014)
